Test results reported in ChEMBL document CHEMBL6109139, “Rational Design of the First Dual Agonist at Trace Amine-Associated Receptor 1 and 5-HT2C Receptors Based on Binding Pocket Similarity for the Treatment of Schizophrenia and Alzheimer's Disease-Related Psychosis” (J Med Chem, 2025).
Active and inactive are the calls of the source. The calls are words filed in the database; no cut-off is given here.

How the values were obtained:
D(2) dopamine receptor = D(2) dopamine receptor (Homo sapiens, UniProt P14416); assay: Antagonist activity at human D2L receptor expressed in Flp-In-CHO cells; type: cell-based
[1] = Toxicity in female Sprague-Dawley rat assessed as corneal epithelial degeneration at 7.5 mg/kg, po administered once daily for 4 weeks; type: organism-based; settings: in vivo, 672 h
[2] = Toxicity in female Beagle dog assessed as change in blood pressure at 0.75 to 2.5 mg/kg, IG administered once daily for 4 weeks and measured after 4 weeks; type: organism-based, Canis lupus familiaris; settings: in vivo, po, 1344 h, dose 0.75-2.5 mg/kg, time 8 weeks
[3] = Toxicity in female Sprague-Dawley rat assessed as irritability at 2.5 mg/kg, po administered once daily for 4 weeks; type: organism-based; settings: in vivo, 672 h
[4] = target: Vasopressin V1a receptor (Homo sapiens) (UniProt P37288); assay: Binding affinity to V1a receptor (unknown origin) at 10 uM by radioligand binding assay relative to control
[5] = target: Trace amine-associated receptor 1 (Rattus norvegicus) (UniProt Q923Y9); assay: Agonist activity at rat TAAR1 by measuring maximum efficacy relative to control; type: functional; settings: filed as agonist
Trace amine-associated receptor 1 (Rattus norvegicus), sequence (Q923Y9 whole entry): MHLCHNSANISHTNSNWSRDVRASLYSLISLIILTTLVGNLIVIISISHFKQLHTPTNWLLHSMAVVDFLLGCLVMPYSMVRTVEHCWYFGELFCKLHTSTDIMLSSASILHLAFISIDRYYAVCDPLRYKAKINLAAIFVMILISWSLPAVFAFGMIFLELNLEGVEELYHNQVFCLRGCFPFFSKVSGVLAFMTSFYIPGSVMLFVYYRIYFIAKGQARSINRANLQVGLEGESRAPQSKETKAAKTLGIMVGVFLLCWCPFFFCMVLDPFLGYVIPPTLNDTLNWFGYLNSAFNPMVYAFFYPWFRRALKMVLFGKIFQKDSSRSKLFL

[6] = target: Kappa-type opioid receptor (Homo sapiens) (UniProt P41145); assay: Binding affinity to op-kappa receptor (unknown origin) at 10 uM by radioligand binding assay relative to control
Kappa-type opioid receptor (Homo sapiens), sequence (P41145 whole entry): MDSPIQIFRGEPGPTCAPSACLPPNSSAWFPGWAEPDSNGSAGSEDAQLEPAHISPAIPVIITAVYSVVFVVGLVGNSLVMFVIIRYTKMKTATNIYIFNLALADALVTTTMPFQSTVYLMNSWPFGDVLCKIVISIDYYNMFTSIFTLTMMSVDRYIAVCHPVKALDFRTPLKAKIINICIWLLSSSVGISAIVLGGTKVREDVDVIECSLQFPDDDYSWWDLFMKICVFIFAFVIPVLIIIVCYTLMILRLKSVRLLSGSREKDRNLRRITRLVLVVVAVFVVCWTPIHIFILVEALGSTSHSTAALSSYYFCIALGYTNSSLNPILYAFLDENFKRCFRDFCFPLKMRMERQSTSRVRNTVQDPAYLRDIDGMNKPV

Homo sapiens = species: Homo sapiens; assay: Binding affinity to CCKa (unknown origin) at 10 uM by radioligand binding assay relative to control
[7] = target: cGMP-inhibited 3',5'-cyclic phosphodiesterase 3A (Homo sapiens) (UniProt Q14432); assay: Binding affinity to PDE3A receptor (unknown origin) at 10 uM by radioligand binding assay relative to control
[8] = target: Voltage-gated inwardly rectifying potassium channel KCNH2 (Homo sapiens, UniProt Q12809); assay: Inhibition of human ERG expressed in CHO cells by whole cell patch clamp technique; type: toxicity, cell-based
Voltage-gated inwardly rectifying potassium channel KCNH2, sequence (Q12809 whole entry): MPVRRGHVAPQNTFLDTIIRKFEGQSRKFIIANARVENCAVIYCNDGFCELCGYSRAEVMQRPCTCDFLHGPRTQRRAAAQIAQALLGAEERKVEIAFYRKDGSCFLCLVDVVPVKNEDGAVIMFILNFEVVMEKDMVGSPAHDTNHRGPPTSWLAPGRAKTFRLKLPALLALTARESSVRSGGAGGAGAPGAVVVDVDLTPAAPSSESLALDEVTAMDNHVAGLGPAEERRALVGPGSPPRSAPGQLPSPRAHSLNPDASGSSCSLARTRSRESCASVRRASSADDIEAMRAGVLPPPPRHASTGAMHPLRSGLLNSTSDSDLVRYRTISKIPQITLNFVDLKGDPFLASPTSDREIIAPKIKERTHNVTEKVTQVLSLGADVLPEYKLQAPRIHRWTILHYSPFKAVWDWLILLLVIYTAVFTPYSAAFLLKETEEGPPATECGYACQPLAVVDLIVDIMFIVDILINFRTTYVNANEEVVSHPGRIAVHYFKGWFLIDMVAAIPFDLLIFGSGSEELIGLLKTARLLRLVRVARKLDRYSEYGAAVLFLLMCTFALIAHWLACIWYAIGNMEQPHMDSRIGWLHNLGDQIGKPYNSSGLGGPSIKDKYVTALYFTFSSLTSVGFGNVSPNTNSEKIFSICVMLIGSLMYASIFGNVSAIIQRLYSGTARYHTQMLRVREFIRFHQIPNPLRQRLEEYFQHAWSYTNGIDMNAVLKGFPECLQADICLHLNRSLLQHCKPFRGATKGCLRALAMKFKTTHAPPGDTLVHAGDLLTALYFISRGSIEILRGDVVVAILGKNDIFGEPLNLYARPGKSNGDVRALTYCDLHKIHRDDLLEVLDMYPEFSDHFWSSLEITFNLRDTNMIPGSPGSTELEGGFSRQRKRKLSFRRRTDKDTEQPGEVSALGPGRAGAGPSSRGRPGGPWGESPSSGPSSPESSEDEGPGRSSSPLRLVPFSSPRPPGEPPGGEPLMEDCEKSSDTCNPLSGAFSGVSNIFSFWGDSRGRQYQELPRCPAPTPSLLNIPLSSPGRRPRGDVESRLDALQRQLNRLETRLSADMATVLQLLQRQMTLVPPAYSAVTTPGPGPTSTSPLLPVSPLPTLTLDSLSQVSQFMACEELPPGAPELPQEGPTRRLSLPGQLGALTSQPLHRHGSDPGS

[9] = target: Trace amine-associated receptor 1 (Rattus norvegicus, UniProt Q923Y9); assay: Agonist activity at rat TAAR1; type: functional
Trace amine-associated receptor 1, sequence (Q923Y9 whole entry): as the sequence (Q923Y9 whole entry) above

Cytochrome P450 2B6 = Cytochrome P450 2B6 (Homo sapiens, UniProt P20813); assay: Inhibition of CYP2B6 in human liver microsomes in presence of NADPH by LC-MS/MS analysis; type: ADME, Microsome
Cytochrome P450 2B6, sequence (P20813 whole entry): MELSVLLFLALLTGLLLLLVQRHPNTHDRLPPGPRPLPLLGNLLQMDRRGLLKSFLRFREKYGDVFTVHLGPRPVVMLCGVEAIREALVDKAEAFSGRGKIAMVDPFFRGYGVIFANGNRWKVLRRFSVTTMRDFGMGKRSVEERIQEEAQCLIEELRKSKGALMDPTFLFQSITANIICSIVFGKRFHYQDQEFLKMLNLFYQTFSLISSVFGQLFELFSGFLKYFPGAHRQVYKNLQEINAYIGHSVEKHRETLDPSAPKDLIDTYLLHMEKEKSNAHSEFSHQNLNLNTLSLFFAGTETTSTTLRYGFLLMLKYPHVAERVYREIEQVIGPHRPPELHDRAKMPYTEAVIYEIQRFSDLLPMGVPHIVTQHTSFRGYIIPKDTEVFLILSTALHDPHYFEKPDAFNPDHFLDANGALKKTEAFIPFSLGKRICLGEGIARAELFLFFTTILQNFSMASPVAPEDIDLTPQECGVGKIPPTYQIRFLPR

[10] = target: Glucocorticoid receptor (Homo sapiens) (UniProt P04150); assay: Binding affinity to GR receptor (unknown origin) at 10 uM by radioligand binding assay relative to control
[11] = system: 5-hydroxytryptamine receptor 2C (Homo sapiens), P28335 [D134A]; assay: Agonist activity at 5HT2CR D134A mutant (unknown origin) expressed in HEK293 cells assessed as IP1 level by HTRF IP1 competitive binding assay; type: cell-based
5-hydroxytryptamine receptor 2C (Homo sapiens), P28335 [D134A], sequence (P28335 whole entry D134A): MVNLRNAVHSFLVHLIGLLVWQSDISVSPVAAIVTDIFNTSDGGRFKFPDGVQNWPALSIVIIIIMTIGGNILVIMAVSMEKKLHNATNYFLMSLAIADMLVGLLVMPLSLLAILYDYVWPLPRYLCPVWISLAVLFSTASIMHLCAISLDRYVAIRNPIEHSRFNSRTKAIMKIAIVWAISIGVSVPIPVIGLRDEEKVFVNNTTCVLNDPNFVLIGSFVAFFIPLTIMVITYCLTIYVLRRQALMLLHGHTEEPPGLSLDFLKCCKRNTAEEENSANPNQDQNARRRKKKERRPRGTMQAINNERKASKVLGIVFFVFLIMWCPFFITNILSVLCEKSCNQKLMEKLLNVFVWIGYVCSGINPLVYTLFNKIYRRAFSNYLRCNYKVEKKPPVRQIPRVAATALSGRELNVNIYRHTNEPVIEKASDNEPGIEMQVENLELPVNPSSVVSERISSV

[12] = Toxicity in female Beagle dog assessed as minimal decrease activity at 2.5 mg/kg, IG administered once daily for 4 weeks; type: organism-based, Canis lupus familiaris; settings: in vivo, po, 672 h
[13] = Toxicity in male Sprague-Dawley rat assessed as minimal corneal neovascularization at 7.5 mg/kg, po administered once daily for 4 weeks; type: organism-based; settings: in vivo, 672 h
[14] = Plasma protein binding in rat assessed as unbound fraction by LC-MS/MS analysis; type: ADME, cell-free
[15] = target: 5-hydroxytryptamine receptor 3A (Homo sapiens) (UniProt P46098); assay: Binding affinity to 5-HT3 (unknown origin) at 10 uM by radioligand binding assay relative to control
[16] = Toxicity in female Beagle dog assessed as minimal decrease activity at 2.5 mg/kg, IG administered once daily for 4 weeks and measured after 4 weeks; type: organism-based, Canis lupus familiaris; settings: in vivo, po, 1344 h, time 8 weeks
[17] = Toxicity in male Sprague-Dawley rat assessed as slow respiration at 7.5 mg/kg, po administered once daily for 4 weeks; type: organism-based; settings: in vivo, 672 h
[18] = Toxicity in female Sprague-Dawley rat assessed as suppression of food consumption at 7.5 mg/kg, po administered once daily for 4 weeks and measured after 4 weeks; type: organism-based; settings: in vivo, 1344 h, time 8 weeks
L-type calcium channel = L-type calcium channel (Homo sapiens, UniProt O60840+Q01668+Q13698+Q13936); assay: Binding affinity to L-type calcium channel (unknown origin) at 10 uM by radioligand binding assay relative to control; type: protein assay; settings: read-out: Activity
[19] = target: 5-hydroxytryptamine receptor 7 (Homo sapiens, UniProt P34969); assay: Agonist activity at recombinant human 5-HT7 expressed in HEK293 cells by FLIPR calcium assay; type: functional, cell-based
5-hydroxytryptamine receptor 7, sequence (P34969 whole entry): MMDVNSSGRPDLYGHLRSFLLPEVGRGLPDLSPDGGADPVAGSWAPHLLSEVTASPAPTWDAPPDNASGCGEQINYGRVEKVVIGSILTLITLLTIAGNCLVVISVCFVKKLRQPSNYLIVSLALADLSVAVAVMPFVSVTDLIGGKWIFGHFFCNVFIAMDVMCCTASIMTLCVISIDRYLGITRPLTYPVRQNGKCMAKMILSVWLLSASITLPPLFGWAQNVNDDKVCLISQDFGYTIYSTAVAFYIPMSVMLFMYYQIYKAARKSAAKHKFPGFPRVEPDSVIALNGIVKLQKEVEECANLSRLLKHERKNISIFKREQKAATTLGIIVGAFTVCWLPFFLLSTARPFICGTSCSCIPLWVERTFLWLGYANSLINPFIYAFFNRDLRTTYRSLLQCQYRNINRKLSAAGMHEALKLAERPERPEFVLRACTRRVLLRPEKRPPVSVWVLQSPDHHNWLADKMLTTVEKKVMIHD

[20] = Toxicity in female Beagle dog assessed as change in hematology at 0.75 to 2.5 mg/kg, IG administered once daily for 4 weeks and measured after 4 weeks; type: organism-based, Canis lupus familiaris; settings: in vivo, po, 1344 h, dose 0.75-2.5 mg/kg, time 8 weeks
[21] = target: Acetylcholinesterase (Homo sapiens) (UniProt P22303); assay: Binding affinity to ACHE (unknown origin) at 10 uM by radioligand binding assay relative to control
Acetylcholinesterase (Homo sapiens), sequence (P22303 whole entry): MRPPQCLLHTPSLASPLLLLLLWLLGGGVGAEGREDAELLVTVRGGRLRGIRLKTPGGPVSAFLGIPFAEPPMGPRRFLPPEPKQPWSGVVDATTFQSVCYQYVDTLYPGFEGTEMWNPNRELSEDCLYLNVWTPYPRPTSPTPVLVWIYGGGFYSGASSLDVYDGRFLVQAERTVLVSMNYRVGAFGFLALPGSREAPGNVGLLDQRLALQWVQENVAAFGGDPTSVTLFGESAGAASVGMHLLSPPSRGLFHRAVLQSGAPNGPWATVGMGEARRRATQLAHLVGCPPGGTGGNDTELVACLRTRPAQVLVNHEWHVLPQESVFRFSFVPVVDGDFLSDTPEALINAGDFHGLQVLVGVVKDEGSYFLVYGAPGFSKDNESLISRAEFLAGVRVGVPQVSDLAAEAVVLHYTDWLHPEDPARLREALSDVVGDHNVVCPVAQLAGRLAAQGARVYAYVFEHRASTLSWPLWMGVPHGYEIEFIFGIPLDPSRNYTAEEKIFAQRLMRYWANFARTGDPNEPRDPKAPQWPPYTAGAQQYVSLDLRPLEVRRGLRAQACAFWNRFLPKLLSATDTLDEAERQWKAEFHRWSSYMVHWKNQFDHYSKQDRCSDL

Mus musculus [22] = assay: Antipsychotic activity against MK-801 induced hyperlocomotion in male C57BL/6J mouse model at 3 mg/kg, IG […] followed by compound addition and measured after 30 mins by open field test; type: functional, organism-based
[23] = Toxicity in female Beagle dog assessed as change in food consumption at 0.75 to 2.5 mg/kg, IG administered once daily for 4 weeks and measured after 4 weeks; type: organism-based, Canis lupus familiaris; settings: in vivo, po, 1344 h, dose 0.75-2.5 mg/kg, time 8 weeks
[24] = Toxicity in male Sprague-Dawley rat assessed as piloerection at 7.5 mg/kg, po administered once daily for 4 weeks and measured after 4 weeks; type: organism-based; settings: in vivo, 1344 h, time 8 weeks
[25] = Toxicity in female Sprague-Dawley rat assessed as irritability at 7.5 mg/kg, po administered once daily for 4 weeks and measured after 4 weeks; type: organism-based; settings: in vivo, 1344 h, time 8 weeks
[26] = target: 5-hydroxytryptamine receptor 2C (Rattus norvegicus, UniProt P08909); assay: Agonist activity at rat 5-HT2CR; type: functional
5-hydroxytryptamine receptor 2C, sequence (P08909 whole entry): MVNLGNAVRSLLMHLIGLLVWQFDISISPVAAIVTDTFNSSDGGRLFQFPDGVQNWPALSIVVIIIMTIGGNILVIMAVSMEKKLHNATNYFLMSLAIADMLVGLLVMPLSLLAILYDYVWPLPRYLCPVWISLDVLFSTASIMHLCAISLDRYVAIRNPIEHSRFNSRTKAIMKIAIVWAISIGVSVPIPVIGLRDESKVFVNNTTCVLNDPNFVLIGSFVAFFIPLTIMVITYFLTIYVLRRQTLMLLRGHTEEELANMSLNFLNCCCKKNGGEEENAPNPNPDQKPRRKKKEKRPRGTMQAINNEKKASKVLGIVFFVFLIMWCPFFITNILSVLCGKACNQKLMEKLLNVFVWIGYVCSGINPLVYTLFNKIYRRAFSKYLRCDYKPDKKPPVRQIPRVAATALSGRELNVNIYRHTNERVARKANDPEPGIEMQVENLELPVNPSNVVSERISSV

[27] = target: 5-hydroxytryptamine receptor 1A (Homo sapiens) (UniProt P08908); assay: Agonist activity at human 5-HT1A expressed in CHO cells coexpressing Galpha15 by measuring maximum efficacy at 2 uM by FLIPR calcium assay relative to control; type: functional, cell-based; settings: filed as agonist
Cytochrome P450 1A2 = Cytochrome P450 1A2 (Homo sapiens, UniProt P05177); assay: Inhibition of CYP1A2 in human liver microsomes in presence of NADPH by LC-MS/MS analysis; type: ADME, Microsome
Cytochrome P450 1A2, sequence (P05177 whole entry): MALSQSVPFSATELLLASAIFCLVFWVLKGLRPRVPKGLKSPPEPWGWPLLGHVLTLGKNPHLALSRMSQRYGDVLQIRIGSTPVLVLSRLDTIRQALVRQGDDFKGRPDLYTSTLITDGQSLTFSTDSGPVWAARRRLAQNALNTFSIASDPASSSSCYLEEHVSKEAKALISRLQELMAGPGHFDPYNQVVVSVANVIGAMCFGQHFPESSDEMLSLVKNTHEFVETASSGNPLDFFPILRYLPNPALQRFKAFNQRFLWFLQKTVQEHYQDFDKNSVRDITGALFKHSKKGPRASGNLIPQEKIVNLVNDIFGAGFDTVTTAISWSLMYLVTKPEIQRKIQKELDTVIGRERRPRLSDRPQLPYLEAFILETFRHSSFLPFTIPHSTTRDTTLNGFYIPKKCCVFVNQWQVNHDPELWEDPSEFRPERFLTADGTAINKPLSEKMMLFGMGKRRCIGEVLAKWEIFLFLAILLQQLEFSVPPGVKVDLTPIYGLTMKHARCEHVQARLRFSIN

[28] = Toxicity in male Sprague-Dawley rat assessed as suppression of body weight gain at 7.5 mg/kg, po administered once daily for 4 weeks and measured weekly twice; type: organism-based; settings: in vivo, 672 h
[29] = Toxicity in male Sprague-Dawley rat assessed as minimal corneal neovascularization at 2.5 to 7.5 mg/kg, po administered once daily for 4 weeks and measured after 4 weeks; type: organism-based; settings: in vivo, 1344 h, dose 2.5-7.5 mg/kg, time 8 weeks
[30] = Toxicity in Sprague-Dawley rat assessed as normal spontaneous movement at 2.5 to 7.5 mg/kg, po administered once daily for 4 weeks; type: organism-based; settings: in vivo, 672 h, dose 2.5-7.5 mg/kg
[31] = Toxicity in male Sprague-Dawley rat assessed as irritability at 7.5 mg/kg, po administered once daily for 4 weeks; type: organism-based; settings: in vivo, 672 h
Mus musculus [32] = assay: Antipsychotic activity in amyloid beta(1 to 42) induced cognitive impairment in mouse model assessed as reduction in exploration time at 1 mg/kg, IG measured after 24 hrs by novel object recognition test; type: functional, organism-based

c1cc2c(s1)[C@@H]1CNCCN1CC2
IC50 (D(2) dopamine receptor): > 100 µM | Activity [1]: Toxic | Activity [2]: Non-toxic | Activity [3]: Toxic | Activity [4]: 6.93% | Emax [5]: 99.5% | Activity [6]: 4.07% | Activity (Homo sapiens): 1.26% | Activity [7]: 3.89% | IC50 [8]: > 30 µM | EC50 [9]: 682 nM | IC50 (Cytochrome P450 2B6): > 50 µM | Activity [10]: 33.7% | Activity [11]: inactive | Activity [12]: Toxic | Activity [13]: Toxic | fraction unbound [14]: 0.759 | Activity [15]: 13% | Activity [16]: Non-toxic | Activity [17]: Toxic | Activity [18]: Non-toxic | activity at 10 µM (L-type calcium channel): -7.25% | EC50 [19]: 10.9 µM | Activity [20]: Non-toxic | Activity [21]: -0.73% | Activity (Mus musculus [22]): inactive | Activity [23]: Non-toxic | Activity [24]: Non-toxic | Activity [25]: Non-toxic | EC50 [26]: 70.2 nM | Emax [27]: 48.3% | IC50 (Cytochrome P450 1A2): > 50 µM | Activity [28]: Toxic | Activity [29]: Non-toxic | Activity [30]: Non-toxic | Activity [31]: Toxic | Activity (Mus musculus [32]): Active
